Measured values reported in US7531557B2, “Diaryl ethers as opioid receptor antagonists” (Eli Lilly and Company, priority 2002, dated 2009).
Structures can show the parent of a compound that is named as a salt.

Key:
[1] = target: mu opioid receptor (MOR) (Homo sapiens, UniProt P35372); assay: SPA-based GTP-γ-S binding assay, antagonist mode, mu; assay type: biochemical; settings: antagonist assay against DAMGO 1 micromolar; Kb by Cheng-Prusoff equation; read-out: In Vitro Antagonism GTP-γ-S Kb Mu
Method: (§1) An SPA—based GTP-γ-S assay format was developed based on previous opioid (Emmerson et al., J. Pharm Exp Ther 278, 1121, 1996; Horng et al., Society for Neuroscience Abstracts, 434.6, 2000) and muscarinic (DeLapp et al., JPET 289, 946, 1999) assay formats. Membranes were re-suspended in 20 mM HEPES, 100 mM NaCl, 5 mM MgCl2, 1 mM DTT, and 1 mM EDTA. Fifty (50) […] of GTP-γ-[35S], compound, membrane suspension (20 microgram/well), and wheat germ agglutinin coated SPA beads (1 mg/well) were added to clear bottom 96 well assay plates. GDP ([…]) was added to the membrane solution prior to addition to the assay plates. Plates were sealed and incubated for four hours at room temperature then placed in a refrigerator overnight to allow the beads to settle. Signal stability at 4° C. was determined to be >60 hours. Plates were warmed to room temperature and counted in a Wallac Microbeta scintillation counter. For antagonist assays, specific agonists were added at the following concentrations: (MOR) DAMGO 1 micromolar, (DOR) DPDPE 30 nM, (KOR) U69593 300 nM. Kb's were determined by Cheng-Prusoff equation (see Cheng and Prusoff, Biochem. Pharmacol. 22, 3099, 1973).

[2] = system: mu, delta and kappa receptors in rat striatum/nucleus accumbens; assay: Ex-vivo receptor binding of 3H-diprenorphine in rat brain after oral dosing; settings: 7 mg/kg p.o., 6 hours after administration, striatum/nucleus accumbens homogenate, versus vehicle
[3] = target: delta opioid receptor (DOR) (Homo sapiens, UniProt P41143); assay: SPA-based GTP-γ-S binding assay, antagonist mode, delta; assay type: biochemical; settings: antagonist assay against DPDPE 30 nM; Kb by Cheng-Prusoff equation; read-out: In Vitro Antagonism GTP-γ-S Kb Delta
Method: as §1

[4] = target: kappa opioid receptor (KOR) (Homo sapiens, UniProt P41145); assay: SPA-based GTP-γ-S binding assay, antagonist mode, kappa; assay type: biochemical; settings: antagonist assay against U69593 300 nM; Kb by Cheng-Prusoff equation; read-out: In Vitro Antagonism GTP-γ-S Kb Kappa
Method: as §1

[5] = system: Diet Induced Obese Rat; assay: Indirect calorimetry assay (food consumption, energy balance); assay type: in vivo; settings: for minimal effective dose: Rattus norvegicus, po, lowest dose with food consumption over 24 hours significantly different from vehicle, read-out: Inhibition of Feeding Diet Induced Obese Rat Minimum Effective Dose (MED); for Energy Balance Diet Induced Obese Rat: test dose 3 mg/kg, p.o., energy balance = caloric intake minus utilization
Method: Indirect Calorimetry Assay
Twenty-four-hour energy expenditure (EE) and respiratory quotient (RQ) were measured by indirect calorimetry using an open circuit calorimetry system (Oxymax, Columbus Instruments Int. Corp., USA). RQ is the ratio of the volume of CO2 produced (VCO2) to the volume of O2 consumed (VO2). EE was calculated as the product of calorific value of oxygen (CV) and VO2 per kilogram of body weight, where CV=3.815+1.232 (RQ). Total calories expended were calculated to determine daily fuel utilization. To calculate the proportion of protein, fat and carbohydrate that is used during that 24-hour period, we used Flatt's proposal (see, Flatt J P 1991 Assessment of daily and cumulative carbohydrate and fat balances in mice. J Nutr Biochem 2:193-202.) and formulae as well as other derived constants (see Elia M, Livesey G 1992 Energy expenditure and fuel selection in biological systems: the theory and practice of calculations based on indirect calorimetry and tracer methods. World Rev Nutr Diet 70:68-131.). Food consumption over the 24-hour period was also measured. […] Results obtained for a sample of compounds of the invention with the indirect calorimetry assay are shown below in Table 4.

Sequence of kappa opioid receptor (KOR) (P41145 whole entry): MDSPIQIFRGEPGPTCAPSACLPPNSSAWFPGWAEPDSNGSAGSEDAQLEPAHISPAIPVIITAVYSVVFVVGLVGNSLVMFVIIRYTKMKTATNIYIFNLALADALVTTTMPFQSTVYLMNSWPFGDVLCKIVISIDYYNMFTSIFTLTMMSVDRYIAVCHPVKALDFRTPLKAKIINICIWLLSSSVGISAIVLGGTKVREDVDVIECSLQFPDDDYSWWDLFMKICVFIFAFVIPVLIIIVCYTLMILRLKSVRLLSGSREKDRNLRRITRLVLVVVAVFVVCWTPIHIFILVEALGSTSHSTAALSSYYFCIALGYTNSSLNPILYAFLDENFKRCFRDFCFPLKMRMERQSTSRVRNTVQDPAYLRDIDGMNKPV
Sequence of mu opioid receptor (MOR) (P35372 whole entry): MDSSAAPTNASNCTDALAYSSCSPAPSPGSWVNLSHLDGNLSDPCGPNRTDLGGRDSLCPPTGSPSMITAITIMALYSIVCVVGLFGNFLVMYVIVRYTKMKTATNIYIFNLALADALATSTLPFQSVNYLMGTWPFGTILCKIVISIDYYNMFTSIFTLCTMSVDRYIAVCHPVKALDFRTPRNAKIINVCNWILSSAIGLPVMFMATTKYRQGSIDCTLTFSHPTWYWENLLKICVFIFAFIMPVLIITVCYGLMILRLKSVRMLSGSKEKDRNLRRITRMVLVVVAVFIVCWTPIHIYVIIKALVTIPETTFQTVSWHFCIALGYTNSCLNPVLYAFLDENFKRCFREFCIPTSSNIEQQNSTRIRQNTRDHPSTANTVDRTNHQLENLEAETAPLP
Sequence of delta opioid receptor (DOR) (P41143 whole entry): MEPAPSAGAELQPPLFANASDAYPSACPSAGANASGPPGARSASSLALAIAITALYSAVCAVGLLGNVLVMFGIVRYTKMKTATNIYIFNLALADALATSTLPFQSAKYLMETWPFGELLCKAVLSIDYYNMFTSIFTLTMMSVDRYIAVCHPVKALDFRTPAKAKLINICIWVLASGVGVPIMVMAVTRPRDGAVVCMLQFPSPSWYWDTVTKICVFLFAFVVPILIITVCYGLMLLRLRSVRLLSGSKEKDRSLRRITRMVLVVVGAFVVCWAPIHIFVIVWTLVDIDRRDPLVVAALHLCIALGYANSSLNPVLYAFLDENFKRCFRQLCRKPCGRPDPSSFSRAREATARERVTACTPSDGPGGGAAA

NC(=O)c1ccc(Oc2ccc(CNCCc3cccc(F)c3)cc2)nc1 [Example 256, 6-(4-{[2-(3-Fluoro-phenyl)-ethylamino]-methyl}-phenoxy)-nicotinamide]
Kb [1]: 0.072 nM | Ex Vivo Binding [3H]-Diprenorphine % Inhibition of at 6 hours 7 mg/kg of test compound [2]: 40% | Kb [3]: 0.677 nM | Kb [4]: 0.894 nM

NC(=O)c1ccc(Oc2ccc(CNCCC3CCCC3)cc2)nc1 [Example 309, 6-{4-[(2-Cyclopentyl-ethylamino)-methyl]-phenoxy}-nicotinamide]
minimal effective dose [5]: ≤ 3 mg/kg | Energy Balance Diet Induced Obese Rat [5]: -39 kcal/kg/day | Ex Vivo Binding [3H]-Diprenorphine % Inhibition of at 6 hours 7 mg/kg of test compound [2]: >60%

Cc1cc(CNCCC(C)(C)C)ccc1Oc1ccc(C(N)=O)cn1 [Example 238, 6-{4-[(3,3-Dimethyl-butylamino)-methyl]-2-methyl-phenoxy}-nicotinamide]
Ex Vivo Binding [3H]-Diprenorphine % Inhibition of at 6 hours 7 mg/kg of test compound [2]: 59%

NC(=O)c1ccc(Oc2ccc(CNCC3CCCCC3)cc2F)nc1
melting point: 152 to 153 °C

NC(=O)c1ccc(Oc2ccc(CNCC3CC3)cc2F)nc1 [Example 673, 6-[4-(Cyclopropylmethylaminomethyl)-2-fluorophenoxy]nicotinonamide]
melting point: 128 to 129 °C

NC(=O)c1ccc(Oc2ccc(CNCCc3ccc(F)cc3)cc2)cc1 [Example 294, 4-(4-{[2-(4-Fluoro-phenyl)-ethylamino]-methyl}-phenoxy)-benzamide]
Ex Vivo Binding [3H]-Diprenorphine % Inhibition of at 6 hours 7 mg/kg of test compound [2]: 50%

COc1cc(CNCCc2ccccc2F)ccc1Oc1ccc(C(N)=O)cn1 [Example 431, 6-(4-{[2-(2-fluorophenyl)ethylamino]methyl}-2-methoxyphenoxy)nicotinamide]
Ex Vivo Binding [3H]-Diprenorphine % Inhibition of at 6 hours 7 mg/kg of test compound [2]: 54%

CCCCNCc1ccc(Oc2ccc(C(N)=O)cn2)c(C)c1 [Example 240, 6-(4-Butylaminomethyl-2-methyl-phenoxy)-nicotinamide]
Ex Vivo Binding [3H]-Diprenorphine % Inhibition of at 6 hours 7 mg/kg of test compound [2]: 38%

CC(C)(C)CCNCc1ccc(Oc2ccc(C(N)=O)cn2)c(Cl)c1 [Example 481, 6-{2-Chloro-4-[(3,3-dimethylbutylamino)-methyl]-phenoxy}-nicotinamide]
Ex Vivo Binding [3H]-Diprenorphine % Inhibition of at 6 hours 7 mg/kg of test compound [2]: 83%

CC(C)(C)CCNCc1ccc(Oc2ccc(C(N)=O)cn2)cc1 [Example 263, 6-{4-[(3,3-Dimethyl-butylamino)-methyl]-phenoxy}-nicotinamide]
minimal effective dose [5]: ≤ 3 mg/kg | Energy Balance Diet Induced Obese Rat [5]: -56 kcal/kg/day | Ex Vivo Binding [3H]-Diprenorphine % Inhibition of at 6 hours 7 mg/kg of test compound [2]: 62%

CCCCCNCc1ccc(Oc2ccc(C(N)=O)nc2)c(F)c1 [Example 405, 5-(2-Fluoro-4-pentylaminomethylphenoxy)pyridine-2-carboxamide]
Ex Vivo Binding [3H]-Diprenorphine % Inhibition of at 6 hours 7 mg/kg of test compound [2]: 55%

NC(=O)c1ccc(Oc2ccc(CNCCc3cccs3)cc2)nc1 [Example 253, 6-{4-[(2-Thiophen-2-yl-ethylamino)-methyl]-phenoxy}-nicotinamide]
minimal effective dose [5]: ≤ 3 mg/kg | Energy Balance Diet Induced Obese Rat [5]: -19 kcal/kg/day | Kb [1]: 0.068 nM | Ex Vivo Binding [3H]-Diprenorphine % Inhibition of at 6 hours 7 mg/kg of test compound [2]: >40% | Kb [3]: 0.708 nM | Kb [4]: 0.355 nM

CC(C)CCNCc1ccc(Oc2ccc(C(N)=O)cn2)c(Cl)c1 [Example 229, 6-[2-Chloro-4-(3-methyl-butylamino-methyl)-phenoxy]nicotinamide]
Ex Vivo Binding [3H]-Diprenorphine % Inhibition of at 6 hours 7 mg/kg of test compound [2]: 77%

Cc1ccccc1CNCCc1ccc(Oc2ccc(C(N)=O)cn2)c(Cl)c1 [Example 476, 6-{2-Chloro-4-[2-(2-methyl-benzylamino)-ethyl]-phenoxy}-nicotinamide]
Kb [1]: 0.281 nM | Kb [3]: 8.9 nM | Kb [4]: 3.38 nM

COc1cc(CNCCC(C)(C)C)ccc1Oc1ccc(C(N)=O)cn1.CS(=O)(=O)O [Example 446, 6-{4-[(3,3-Dimethylbutylamino)methyl]-2-methoxyphenoxy}nicotinamide methanesulfonate]
Ex Vivo Binding [3H]-Diprenorphine % Inhibition of at 6 hours 7 mg/kg of test compound [2]: 55%

Cc1cc(CNCCC(C)C)ccc1Oc1ccc(C(N)=O)cc1F [Example 246, 3-Fluoro-4-{2-methyl-4-[(3-methyl-butylamino)-methyl]-phenoxy}-benzamide]
Ex Vivo Binding [3H]-Diprenorphine % Inhibition of at 6 hours 7 mg/kg of test compound [2]: 58%

NC(=O)c1ccc(Oc2ccc(CCNCc3ccccc3)cc2Cl)nc1 [Example 475, 6-[4-(2-Benzylamino-ethyl)-2-chloro-phenoxy]-nicotinamide]
Kb [1]: 0.843 nM | Kb [3]: 17.5 nM | Kb [4]: 7.86 nM

NC(=O)c1ccc(Oc2ccc3c(c2)CCCN(CCc2ccccc2)C3)nc1 [Example 447, 6-(2-Phenethyl-2,3,4,5-tetrahydro-1H-benzo[c]azepin-7-yloxy)nicotinamide]
Ex Vivo Binding [3H]-Diprenorphine % Inhibition of at 6 hours 7 mg/kg of test compound [2]: 62%

CC(C)CCN(Cc1ccc(Oc2ccc(C(N)=O)cn2)c(F)c1)CC1CCCCC1 [Example 671, 6-[4-((3-Methyl-butyl), cyclohexylmethylaminomethyl)-2-fluorophenoxy]nicotinonamide]
melting point: 110 to 111 °C

O=C1CC[C@@]2(O)[C@H]3Cc4ccc(O)c5c4[C@@]2(CCN3CC2CC2)[C@H]1O5 [Naltrexone ®, Naltrexone HCl, reference compound]
minimal effective dose [5]: > 10 mg/kg | Energy Balance Diet Induced Obese Rat [5]: Not significant | Ex Vivo Binding [3H]-Diprenorphine % Inhibition of at 6 hours 7 mg/kg of test compound [2]: <40%

CC(C)CCNCc1ccc(Oc2ccc(C(N)=O)cn2)c(F)c1 [Example 228, 6-[2-Fluoro-4-(3-methyl-butylamino-methyl)-phenoxy]nicotinamide]
minimal effective dose [5]: 0.3 mg/kg | Energy Balance Diet Induced Obese Rat [5]: -81 kcal/kg/day | Ex Vivo Binding [3H]-Diprenorphine % Inhibition of at 6 hours 7 mg/kg of test compound [2]: >65%

CCCCCNCc1ccc(Oc2ccc(C(N)=O)cn2)c(OC)c1 [Example 420, 6-(2-Methoxy-4-pentylaminomethylphenoxy)nicotinamide]
Ex Vivo Binding [3H]-Diprenorphine % Inhibition of at 6 hours 7 mg/kg of test compound [2]: 75%

NC(=O)c1ccc(Oc2ccc(CCNCc3cccc(F)c3)cc2Cl)nc1 [Example 478, 6-{2-Chloro-4-[2-(3-fluoro-benzylamino)-ethyl]-phenoxy}-nicotinamide]
Kb [1]: 0.41 nM | Kb [3]: 5.78 nM | Kb [4]: 4.5 nM

NC(=O)c1ccc(Oc2ccc(CNCCC3CCCCC3)cc2)nc1 [Example 272, 6-{4-[(2-Cyclohexyl-ethylamino)-methyl]-phenoxy}-nicotinamide]
Ex Vivo Binding [3H]-Diprenorphine % Inhibition of at 6 hours 7 mg/kg of test compound [2]: 79%

NC(=O)c1ccc(Oc2ccc(CCNCc3cccc(Cl)c3)cc2Cl)nc1 [Example 479, 6-{2-Chloro-4-[2-(3-chloro-benzylamino)-ethyl]-phenoxy}-nicotinamide]
Kb [1]: 0.503 nM | Kb [3]: 30.1 nM | Kb [4]: 6.86 nM

CC(C)CCNCc1ccc(Oc2ccc(C(N)=O)cn2)cc1 [Example 271, 6-{4-[(3-Methyl-butylamino)-methyl]-phenoxy}-nicotinamide]
minimal effective dose [5]: 0.3 mg/kg | Energy Balance Diet Induced Obese Rat [5]: -35 kcal/kg/day | Kb [1]: 0.2 nM | Ex Vivo Binding [3H]-Diprenorphine % Inhibition of at 6 hours 7 mg/kg of test compound [2]: >40% | Kb [3]: 4.4 nM | Kb [4]: 0.4 nM

Cc1cc(CNCCC(C)C)ccc1Oc1ccc(C(N)=O)cn1 [Example 227, 6-[2-Methyl-4-(3-methyl-butylamino-methyl)-phenoxy]nicotinamide]
minimal effective dose [5]: 0.3 mg/kg | Energy Balance Diet Induced Obese Rat [5]: -68 kcal/kg/day | Ex Vivo Binding [3H]-Diprenorphine % Inhibition of at 6 hours 7 mg/kg of test compound [2]: 55%
